# Laboratory results reported in PubChem BioAssay AID2060485 (Molecular Pharmacology Branch, DTP, NCI, 2025).
# pIC50: −log10 of the molar value.
# Test system: A375 multi-cell spheroids with HUVEC/MSC, viability
# Assay: Anticancer human tumor A375 cell line growth inhibition [GQUAD];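 also: spheroids exposed to compounds for seven days before readout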
# Settings: for pIC50: curve of first compound; for viability, T/C: stronger effect = lower value
# Summary of the method: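 Multi-cell-type spheroids of tumor cells with HUVEC and mesenchymal stem cells, treated with drug combinations. Concentrations descend in half-log steps from near clinical Cmax, or from 10 microM where Cmax is unknown; viability read-out.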
# [1] = second compound 0.0316 µM, first compound 0.0316 µM
# [2] = second compound 0.0316 µM, first compound 0.1 µM
# [3] = second compound 0.0316 µM, first compound 0.316 µM
# [4] = second compound 0.0316 µM, first compound 1 µM
# [5] = second compound 0.0316 µM, first compound 3.16 µM
# [6] = second compound 0.0316 µM, first compound 10 µM
# [7] = second compound 0.1 µM, first compound 0.0316 µM
# [8] = second compound 0.1 µM, first compound 0.1 µM
# [9] = second compound 0.1 µM, first compound 0.316 µM
# [10] = second compound 0.1 µM, first compound 1 µM
# [11] = second compound 0.1 µM, first compound 3.16 µM
# [12] = second compound 0.1 µM, first compound 10 µM
# [13] = second compound 0.316 µM, first compound 0.0316 µM
# [14] = second compound 0.316 µM, first compound 0.1 µM
# [15] = second compound 0.316 µM, first compound 0.316 µM
# [16] = second compound 0.316 µM, first compound 1 µM
# [17] = second compound 0.316 µM, first compound 3.16 µM
# [18] = second compound 0.316 µM, first compound 10 µM
# [19] = second compound 1 µM, first compound 0.0316 µM
# [20] = second compound 1 µM, first compound 0.1 µM
# [21] = second compound 1 µM, first compound 0.316 µM
# [22] = second compound 1 µM, first compound 1 µM
# [23] = second compound 1 µM, first compound 3.16 µM
# [24] = second compound 1 µM, first compound 10 µM
# [25] = second compound 3.16 µM, first compound 0.0316 µM
# [26] = second compound 3.16 µM, first compound 0.1 µM
# [27] = second compound 3.16 µM, first compound 0.316 µM
# [28] = second compound 3.16 µM, first compound 1 µM
# [29] = second compound 3.16 µM, first compound 3.16 µM
# [30] = second compound 3.16 µM, first compound 10 µM
# [31] = second compound 10 µM, first compound 0.0316 µM
# [32] = second compound 10 µM, first compound 0.1 µM
# [33] = second compound 10 µM, first compound 0.316 µM
# [34] = second compound 10 µM, first compound 1 µM
# [35] = second compound 10 µM, first compound 3.16 µM
# [36] = second compound 10 µM, first compound 10 µM
smiles,measurement,setting,value
COc1cc(C2c3cc4c(cc3C(OC3OC5COC(C)OC5C(O)C3O)C3COC(=O)C23)OCO4)cc(OC)c1O (stereo unspecified) + Cc1cnc(CNC(=O)c2c(=O)c3ccc(N4CCCN(C)CC4)nc3n3c2sc2ccccc23)cn1,pIC50,second compound 0.0316 µM,6.18
same,pIC50,second compound 0.1 µM,6.67
same,pIC50,second compound 0.316 µM,> 7.50
same,pIC50,second compound 1 µM,> 7.50
same,pIC50,second compound 3.16 µM,> 7.50
same,pIC50,second compound 10 µM,> 7.50
same,"viability, T/C",[1],110%
same,"viability, T/C",[2],90.6%
same,"viability, T/C",[3],65.6%
same,"viability, T/C",[4],40.7%
same,"viability, T/C",[5],27.4%
same,"viability, T/C",[6],20.2%
same,"viability, T/C",[7],73.6%
same,"viability, T/C",[8],59.8%
same,"viability, T/C",[9],43.6%
same,"viability, T/C",[10],33.5%
same,"viability, T/C",[11],25.8%
same,"viability, T/C",[12],14.7%
same,"viability, T/C",[13],48.3%
same,"viability, T/C",[14],50.2%
same,"viability, T/C",[15],37.8%
same,"viability, T/C",[16],32.4%
same,"viability, T/C",[17],22.1%
same,"viability, T/C",[18],14.3%
same,"viability, T/C",[19],40.1%
same,"viability, T/C",[20],38.6%
same,"viability, T/C",[21],30.6%
same,"viability, T/C",[22],30.7%
same,"viability, T/C",[23],22.3%
same,"viability, T/C",[24],15.3%
same,"viability, T/C",[25],34%
same,"viability, T/C",[26],32.5%
same,"viability, T/C",[27],31%
same,"viability, T/C",[28],26%
same,"viability, T/C",[29],23.4%
same,"viability, T/C",[30],13.9%
same,"viability, T/C",[31],29.2%
same,"viability, T/C",[32],28.1%
same,"viability, T/C",[33],31.8%
same,"viability, T/C",[34],27.3%
same,"viability, T/C",[35],21%
same,"viability, T/C",[36],13.4%
CC1COCCN1c1cc(C2(O)CC3CCC(C2)O3)c2cnn(-c3ccn[nH]3)c2n1 (stereo unspecified) + CN(C)c1ccc(Nc2c3ccc(NC(=O)CCN4CCCC4)cc3nc3cc(NC(=O)CCN4CCCC4)ccc23)cc1,pIC50,second compound 0.0316 µM,6.70
same,pIC50,second compound 0.1 µM,6.73
same,pIC50,second compound 0.316 µM,6.68
same,pIC50,second compound 1 µM,6.69
same,pIC50,second compound 3.16 µM,6.65
same,pIC50,second compound 10 µM,6.69
same,"viability, T/C",[1],94.4%
same,"viability, T/C",[2],70.8%
same,"viability, T/C",[3],36.1%
same,"viability, T/C",[4],15.5%
same,"viability, T/C",[5],11.3%
same,"viability, T/C",[6],6.63%
same,"viability, T/C",[7],97.4%
same,"viability, T/C",[8],70.4%
same,"viability, T/C",[9],32.7%
same,"viability, T/C",[10],15.7%
same,"viability, T/C",[11],8.49%
same,"viability, T/C",[12],6.23%
same,"viability, T/C",[13],101%
same,"viability, T/C",[14],70.7%
same,"viability, T/C",[15],40.5%
same,"viability, T/C",[16],13.9%
same,"viability, T/C",[17],10.9%
same,"viability, T/C",[18],7.23%
same,"viability, T/C",[19],97.9%
same,"viability, T/C",[20],72.4%
same,"viability, T/C",[21],35.6%
same,"viability, T/C",[22],16.3%
same,"viability, T/C",[23],11.7%
same,"viability, T/C",[24],7.1%
same,"viability, T/C",[25],97.2%
same,"viability, T/C",[26],72.7%
same,"viability, T/C",[27],41%
same,"viability, T/C",[28],17.8%
same,"viability, T/C",[29],11.1%
same,"viability, T/C",[30],7.14%
same,"viability, T/C",[31],87.7%
same,"viability, T/C",[32],67.8%
same,"viability, T/C",[33],39.7%
same,"viability, T/C",[34],16%
same,"viability, T/C",[35],11.5%
same,"viability, T/C",[36],6.9%
O=C(c1cc(Cc2n[nH]c(=O)c3ccccc23)ccc1F)N1CCN(C(=O)C2CC2)CC1 + Cc1[nH]c2ccc(F)cc2c1-c1nc2c3cccnc3c3ncccc3c2[nH]1,pIC50,second compound 0.0316 µM,< 5.00
same,pIC50,second compound 0.1 µM,< 5.00
same,pIC50,second compound 0.316 µM,< 5.00
same,pIC50,second compound 1 µM,< 5.00
same,pIC50,second compound 3.16 µM,< 5.00
same,pIC50,second compound 10 µM,< 5.00
same,"viability, T/C",[1],100%
same,"viability, T/C",[2],88.9%
same,"viability, T/C",[3],86.7%
same,"viability, T/C",[4],102%
same,"viability, T/C",[5],110%
same,"viability, T/C",[6],80.6%
same,"viability, T/C",[7],101%
same,"viability, T/C",[8],97.4%
same,"viability, T/C",[9],86.7%
same,"viability, T/C",[10],103%
same,"viability, T/C",[11],96.1%
same,"viability, T/C",[12],91.5%
same,"viability, T/C",[13],92.2%
same,"viability, T/C",[14],105%
same,"viability, T/C",[15],105%
same,"viability, T/C",[16],94.8%
same,"viability, T/C",[17],111%
same,"viability, T/C",[18],83%
same,"viability, T/C",[19],96.2%
same,"viability, T/C",[20],95.5%
same,"viability, T/C",[21],102%
same,"viability, T/C",[22],102%
same,"viability, T/C",[23],117%
same,"viability, T/C",[24],74.7%
same,"viability, T/C",[25],80.5%
same,"viability, T/C",[26],78.7%
same,"viability, T/C",[27],84.3%
same,"viability, T/C",[28],73.4%
same,"viability, T/C",[29],74.7%
same,"viability, T/C",[30],61.6%
same,"viability, T/C",[31],94.1%
same,"viability, T/C",[32],90.5%
same,"viability, T/C",[33],105%
same,"viability, T/C",[34],90.8%
same,"viability, T/C",[35],91.3%
same,"viability, T/C",[36],72.1%
